Assay results taken from patent publication US8557872B2, “Compounds, isomer thereof, or pharmaceutically acceptable salts thereof as vanilloid receptor antagonist; and pharmaceutical compositions containing the same” (Amorepacific Corporation, priority 2008, dated 2013).
pIC50: −log10 of the molar value. Like-named read-outs stand apart in the source and are kept apart here. One block for each compound: values may come before it.

Legend:
[1] = PK study in rats, single oral administration; assay type: in vivo, rat; parameters: AUC: concentration or dose not given beside the values; conditions: for AUC / Cmax / Tmax / half-life: rat, single oral administration, plasma
Method: Pharmacokinetics of compounds in rats were analyzed using the following experiment. Rats were fasted overnight prior to administration and until approximately 4 hours after administration. Rats were given a single oral administration of compound at same dose. Administration volume was 10 ml/kg. Blood samples were collected from the retro-orbital sinus at various times over the following 7 hrs. Immediately after each collection, plasmas were separated from blood cells by centrifugation and stored at −20° C. until the analysis was performed. The plasma samples were analyzed using a reverse phase high-performance chromatography (HPLC) method.

vanilloid receptor = biological target: T1, vanilloid receptor (Rattus norvegicus, UniProt O35433); assay: 45Ca influx test (calcium uptake) in primary cultured DRG neurons, capsaicin 0.5 μM; assay type: cell-based
T1 construct: DRG nerve cells from the primary culture of 2 days were equilibrated by washing 4 times; endogenous in cells; host or cells: primary culture of dorsal root ganglion neurons from neonatal SD rats
Method: 1) Separation of Spinal Dorsal Root Ganglia (DRG) in Newborn Rats and Primary Culture Thereof
Neonatal (2-3 day old or younger than 2-3 day old) SD rats were put in ice for 5 minutes to anesthetize and disinfected with 70% ethanol. […] The DRG were incubated sequentially at 37° C. for 30 mins in 200 U/ml collagenase and 2.5 mg/ml trypsin, separately. The ganglia were washed twice with DME/F12 medium supplemented with 10% horse serum, triturated through a fire-polished Pasteur pipette, filtered through Nitex 80 membrane to obtain single cell suspension and the suspension was washed once more. This was subjected to centrifugation, then resuspended in cell culture medium at certain level of cell density. As the cell culture medium, DME/F12 medium supplemented with 10% horse serum was diluted with identical medium conditioned by C6 glioma cells 2 days on a confluent monolayer (1:1), and NGF (Nerve Growth Factor) was added to adjust 200 ng/ml as final concentration. After the cells were grown 2 days in medium where cytosine arabinoside (Ara-C, 100 μM) was added to kill dividing nonneuronal cells, medium was changed to one without Ara-C. The resuspended cells were plated at a density of 1500-2000 neurons/well onto Terasaki plates previously coated with 10 μg/ml poly-D-ornithine.
2) ^45Ca Influx Experiments
DRG nerve cells from the primary culture of 2 days were equilibrated by washing 4 times with HEPES (10 mM, pH 7.4)-buffered Ca^2+, Mg^2+-free HBSS (H-HBSS). The solution in each well was removed from the individual well. Medium containing the test compound plus capsaicin (final concentration 0.5 μM) and ^45Ca (final concentration 10 μCi/ml) in H-HBSS was added to each well and incubated at room temperature for 10 mins. Terasaki plates were washed five times with H-HBSS and dried at room temperature. To each well, 0.3% SDS (10 μl) was added to elute ^45Ca. After the addition of scintillation cocktail of into each well, the amount of ^45Ca influx into neuron was measured by counting radioactivity.

[2] = Table 2, read-out: T½ (converted)
[3] = rat DRG neurons, capsaicin 0.5 μM, 45Ca, read-out: Antagonist Calcium Uptake Test (IC50)
[4] = comparison with comparative compounds F and G, read-out: IC50 value
[5] = Table 3, detection limit 0.100 mcg/ml

T1 sequence (O35433 whole entry): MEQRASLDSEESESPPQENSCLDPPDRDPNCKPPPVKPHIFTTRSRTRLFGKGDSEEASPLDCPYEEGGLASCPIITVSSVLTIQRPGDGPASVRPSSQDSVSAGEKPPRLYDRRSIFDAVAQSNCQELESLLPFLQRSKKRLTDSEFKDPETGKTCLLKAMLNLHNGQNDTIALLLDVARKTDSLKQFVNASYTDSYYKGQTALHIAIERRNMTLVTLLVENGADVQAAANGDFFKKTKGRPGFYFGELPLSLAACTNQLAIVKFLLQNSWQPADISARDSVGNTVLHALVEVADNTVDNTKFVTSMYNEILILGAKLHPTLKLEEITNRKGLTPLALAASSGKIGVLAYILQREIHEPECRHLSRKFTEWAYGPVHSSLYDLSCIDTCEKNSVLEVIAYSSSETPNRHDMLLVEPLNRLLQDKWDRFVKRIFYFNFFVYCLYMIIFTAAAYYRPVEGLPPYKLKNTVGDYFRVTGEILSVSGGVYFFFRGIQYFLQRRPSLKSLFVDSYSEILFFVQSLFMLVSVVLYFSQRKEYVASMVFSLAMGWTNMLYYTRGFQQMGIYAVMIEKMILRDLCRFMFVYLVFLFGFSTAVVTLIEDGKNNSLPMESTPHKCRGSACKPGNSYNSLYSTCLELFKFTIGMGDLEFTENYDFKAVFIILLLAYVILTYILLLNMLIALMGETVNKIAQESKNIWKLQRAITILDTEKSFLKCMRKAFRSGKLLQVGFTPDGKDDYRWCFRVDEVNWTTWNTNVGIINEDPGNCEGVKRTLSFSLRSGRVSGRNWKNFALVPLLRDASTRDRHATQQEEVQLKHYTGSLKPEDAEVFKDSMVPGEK

AUC ([1]; Table 2): 19.2 µg·h/mL
Cmax ([1]; Table 2): 3.66 µg/mL
Tmax ([1]; Table 2): 2 h
half-life [1, 2]: 2.58 h
pIC50 (vanilloid receptor; [3]): 6.80
SMILES: CCCc1cc(C(F)(F)F)ccc1/C=C/C(=O)NCc1cc(F)c(NS(C)(=O)=O)c(F)c1 [Example 22, N-(3,5-Difluoro-4-methanesulfonylamino-benzyl)-3-(2-propyl-4-trifluoromethyl-phenyl)-acrylamide]

AUC ([1]; Table 2): 5.32 µg·h/mL
Cmax ([1]; Table 2): 0.772 µg/mL
Tmax ([1]; Table 2): 2 h
half-life [1, 2]: 4.05 h
pIC50 (vanilloid receptor; [4]): 7.57
SMILES: C=Cc1cc(CNC(=O)/C=C/c2ccc(C(F)(F)F)cc2NC(C)C)cc(F)c1NS(C)(=O)=O [Example 54, N-(3-fluoro-4-methanesulfonylamino-5-vinyl-benzyl)-3-(2-isopropylamino-4-trifluoromethyl-phenyl)-acrylamide]

pIC50 (vanilloid receptor; [3]): 5.96
SMILES: CCCOc1cc(F)ccc1/C=C/C(=O)NCc1cc(F)c(NS(C)(=O)=O)c(F)c1 [Example 28, N-(3,5-Difluoro-4-methanesulfonylamino-benzyl)-3-(4-fluoro-2-propoxy-phenyl)-acrylamide]

pIC50 (vanilloid receptor; [4]): 6.82
SMILES: C=Cc1cc(CNC(=O)/C=C/c2ccc(C(F)(F)F)cc2NCCC)cc(F)c1NS(C)(=O)=O [Example 12, N-(3-Fluoro-4-methanesulfonylamino-5-vinyl-benzyl)-3-(2-propylamino-4-trifluoromethyl-phenyl)-acrylamide]

pIC50 (vanilloid receptor; [3]): 7.04
SMILES: CCCc1cc(C(F)(F)F)ccc1/C=C/C(=O)N[C@H](C)c1ccc(NS(C)(=O)=O)c(F)c1 [Example 44]

pIC50 (vanilloid receptor; [3]): 5.48
SMILES: CS(=O)(=O)Nc1c(F)cc(CNC(=O)/C=C/c2ccc(C(F)(F)F)cc2N2CCCCC2)cc1F [Example 51, N-(3,5-Difluoro-4-methanesulfonylamino-benzyl)-3-(2-piperidin-1-yl-4-trifluoromethyl-phenyl)-acrylamide]

pIC50 (vanilloid receptor; [3]): 6.92
SMILES: CCCNc1cc(C(F)(F)F)ccc1/C=C/C(=O)NCc1cc(F)c(NS(C)(=O)=O)c(C#N)c1 [Example 13, N-(3-Cyano-5-fluoro-4-methanesulfonylamino-benzyl)-3-(2-propylamino-4-trifluoromethyl-phenyl)-acrylamide]

pIC50 (vanilloid receptor; [3]): 7.04
SMILES: C#Cc1cc(CNC(=O)/C=C/c2ccc(C(F)(F)F)cc2CCC)cc(F)c1NS(C)(=O)=O [Example 35, N-(3-Ethynyl-5-fluoro-4-methanesulfonylamino-benzyl)-3-(2-propyl-4-trifluoromethyl-phenyl)-acrylamide]

pIC50 (vanilloid receptor; [3]): 6.77
SMILES: CCCc1cc(C(F)(F)F)ccc1/C=C/C(=O)N[C@H](CC)c1cc(F)c(NS(C)(=O)=O)c(F)c1 [Example 25, (R)—N-[1-(3,5-Difluoro-4-methanesulfonylamino-phenyl)-propyl]-3-(2-propyl-4-trifluoromethyl-phenyl)-acrylamide]

pIC50 (vanilloid receptor; [3]): 6.07
SMILES: CCOc1cc(C(F)(F)F)ccc1/C=C/C(=O)NCc1cc(F)c(NS(C)(=O)=O)c(F)c1 [Example 8, N-(3,5-Difluoro-4-methanesulfonylamino-benzyl)-3-(2-ethoxy-4-trifluoromethyl-phenyl)-acrylamide]

pIC50 (vanilloid receptor; [3]): 6.49
SMILES: CCNc1cc(F)ccc1/C=C/C(=O)NCc1cc(F)c(NS(C)(=O)=O)c(F)c1 [Example 43, N-(3,5-Difluoro-4-methanesulfonylaminobenzyl)-3-(4-fluoro-2-ethylaminophenyl)acrylamide]

More lines, now with the values behind:

SMILES: C[C@@H](NC(=O)/C=C/c1ccc(C(F)(F)F)cc1)c1cc(F)c(NS(C)(=O)=O)c(F)c1 [Comp Cpd G, reference compound]
PK properties (in terms of T max and AUC) ([1]; oral, in words): poor PK-properties
Cmax ([1]; Table 4, detection limit 0.100 mcg/ml): < 0.1 µg/mL
pIC50 (vanilloid receptor; Table 4, comparative compounds having CF3-phenyl, read-out: IC50): < 5.00
pIC50 (vanilloid receptor; [4]): < 5.00

SMILES: CCCNc1cc(C(F)(F)F)ccc1/C=C/C(=O)N[C@H](C)c1cc(F)c(NS(C)(=O)=O)c(F)c1 [Example 1, (R)—N-[1-(3,5-Difluoro-4-methanesulfonylamino-phenyl)-ethyl]-3-(2-propylamino-4-trifluoromethyl-phenyl)-acrylamide]
AUC ([1]; Table 2): 1.94 µg·h/mL
Cmax ([1]; Table 2): 0.466 µg/mL
Tmax ([1]; Table 2): 3.5 h
half-life [1, 2]: 1.4 h
pIC50 (vanilloid receptor; [3]): 7.72

SMILES: CCCNc1cc(F)ccc1/C=C/C(=O)N[C@H](C)c1cc(F)c(NS(C)(=O)=O)c(F)c1 [Example 29, (R)—N-[1-(3,5-Difluoro-4-methanesulfonylamino-phenyl)ethyl]-3-(4-fluoro-2-propylaminophenyl)-acrylamide]
pIC50 (vanilloid receptor; [3]): 6.80

SMILES: CCCCOc1cc(C(F)(F)F)ccc1/C=C/C(=O)NCc1cc(F)c(NS(C)(=O)=O)c(F)c1 [Example 32, 3-(2-Butoxy-4-trifluoromethyl-phenyl)-N-(3,5-difluoro-4-methanesulfonylamino-benzyl)-acrylamide]
pIC50 (vanilloid receptor; [3]): 5.66

SMILES: CCCOc1cc(C(F)(F)F)ccc1/C=C/C(=O)N[C@H](C)c1cc(F)c(NS(C)(=O)=O)c(F)c1 [Example 5, (R)—N-[1-(3,5-Difluoro-4-methanesulfonylamino-phenyl)-ethyl]-3-(2-propoxy-4-trifluoromethyl-phenyl)-acrylamide]
AUC ([1]; Table 2): 22.5 µg·h/mL
Cmax ([1]; Table 2): 2.63 µg/mL
Tmax ([1]; Table 2): 3.5 h
half-life [1, 2]: 4.3 h
pIC50 (vanilloid receptor; [3]): 6.92

SMILES: C=Cc1cc(CNC(=O)/C=C/c2ccc(C(C)(C)C)cc2)cc(F)c1NS(C)(=O)=O [Comp Cpd A, reference compound]
Cmax [1, 5]: < 0.1 µg/mL

SMILES: CCCc1cc(C(F)(F)F)cc(CCC)c1/C=C/C(=O)N[C@H](C)c1cc(F)c(NS(C)(=O)=O)c(F)c1 [Example 6, (R)—N-[1-(3,5-Difluoro-4-methanesulfonylamino-phenyl)-ethyl]-3-(2,6-dipropyl-4-trifluoromethyl-phenyl)-acrylamide]
pIC50 (vanilloid receptor; [3]): 7.59

SMILES: CCCc1cc(C(F)(F)F)ccc1/C=C(\C)C(=O)N[C@H](C)c1ccc(NS(C)(=O)=O)c(F)c1 [Example 49, (R)—N-[1-(3-Fluoro-4-methanesulfonylamino-phenyl)-ethyl]-2-methyl-3-(2-propyl-4-trifluoromethyl-phenyl)-acrylamide]
pIC50 (vanilloid receptor; [3]): 5.85

SMILES: CCC(C)Oc1cc(F)ccc1/C=C/C(=O)NCc1cc(F)c(NS(C)(=O)=O)c(F)c1 (stereo not shown) [Example 41, 3-(2-sec-Butoxy-4-fluoro-phenyl)-N-(3,5-difluoro-4-methanesulfonylamino-benzyl)-acrylamide]
pIC50 (vanilloid receptor; [3]): 6.26

SMILES: CCCCOc1cc(F)ccc1/C=C/C(=O)N[C@H](C)c1cc(F)c(NS(C)(=O)=O)c(F)c1 [Example 33, (R)-3-(2-Butoxy-4-fluoro-phenyl)-N-[1-(3,5-difluoro-4-methanesulfonylamino-phenyl)-ethyl]-acrylamide]
pIC50 (vanilloid receptor; [3]): 6.82

SMILES: CCCCNc1cc(F)ccc1/C=C/C(=O)N[C@H](C)c1cc(F)c(NS(C)(=O)=O)c(F)c1 [Example 45, (R)-3-(2-Butylamino-4-fluoro-phenyl)-N-[1-(3,5-difluoro-4-methanesulfonylamino-phenyl)-ethyl]-acrylamide]
pIC50 (vanilloid receptor; [3]): 7.19

SMILES: CC(C)Oc1cc(C(F)(F)F)ccc1/C=C/C(=O)N[C@H](C)c1cc(F)c(NS(C)(=O)=O)c(F)c1 [Example 26, (R)—N-[1-(3,5-Difluoro-4-methanesulfonylamino-phenyl)-ethyl]-3-(2-isopropoxy-4-trifluoromethyl-phenyl)-acrylamide]
pIC50 (vanilloid receptor; [3]): 7.33

SMILES: C=Cc1cc(CNC(=O)/C=C/c2ccc(C(C)(C)C)cc2NC(C)C)cc(F)c1NS(C)(=O)=O [Comp Cpd C, reference compound]
Cmax [1, 5]: < 0.1 µg/mL

SMILES: CC(C)(C)c1ccc(/C=C/C(=O)NCc2cc(F)c(NS(C)(=O)=O)c(F)c2)cc1 [Comp Cpd B, reference compound]
AUC ([1]; Table 3): 0.072 µg·h/mL
Tmax ([1]; Table 3): 0.5 h
Cmax [1, 5]: 0.069 µg/mL
half-life ([1]; Table 3, read-out: T½ (converted)): 0.462 h

SMILES: CCCCNc1cc(C(F)(F)F)ccc1/C=C/C(=O)N[C@H](C)c1cc(F)c(NS(C)(=O)=O)c(F)c1 [Example 3, (R)-3-(2-Butylamino-4-trifluoromethyl-phenyl)-N-[1-(3,5-difluoro-4-methanesulfonylamino-phenyl)-ethyl]-acrylamide]
pIC50 (vanilloid receptor; [3]): 6.92

SMILES: C[C@@H](NC(=O)/C=C/c1ccc(C(F)(F)F)cc1OCC1CCCCC1)c1cc(F)c(NS(C)(=O)=O)c(F)c1 [Example 50, (R)-3-(2-Cyclohexylmethoxy-4-trifluoromethyl-phenyl)-N-[1-(3,5-difluoro-4-methanesulfonylamino-phenyl)-ethyl]-acrylamide]
pIC50 (vanilloid receptor; [3]): 6.68
